We go through ten compounds from patent US8507472B2 (priority 2010, dated 2013).

Values joined by “and” are separate entries in the source; they are usually repeats but may differ in a detail not shown here. Identical values can stand only once.

In one assay the test system is Septoria tritici. The assay is described as follows: Septoria tritici test (wheat)/protective. The class given is in vivo. The following applies: in vivo. As to the method: (§1) Solvent: 49 parts by weight of N,N-dimethylacetamide
(§2) Emulsifier: 1 part by weight of alkylaryl polyglycol ether
To produce a suitable preparation of active compound, 1 part by weight of active compound is mixed with the stated amount of solvent and emulsifier, and the concentrate is diluted with water to the desired concentration.
To test for protective activity, young plants are sprayed with the active compound preparation at the stated application rate. After the spray coating has dried on, the plants are sprayed with a spore suspension of Septoria tritici. The plants remain in an incubation cabin at 20° C. and 100% relative atmospheric humidity for 48 hours. The plants are then placed under a translucent hood at 15° C. and 100% relative atmospheric humidity for a further 60 hours.
The plants are placed in a greenhouse at a temperature of about 15° C. and a relative atmospheric humidity of 80%.
Evaluation is carried out 21 days after the inoculation. 0% means an efficacy which corresponds to that of the control, whereas an efficacy of 100% means that no infection is observed.

A further assay relates to Sphaerotheca fuliginea. In words: Sphaerotheca test (cucumber)/protective. The class given is in vivo. As to conditions: in vivo. A digest of the protocol:
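Protective test: young cucumber plants sprayed with compound (DMF/alkylaryl polyglycol ether concentrate diluted in water) at the stated rate, inoculated with S. fuliginea spores 1 day later, then kept in greenhouse at 23 °C, 70% RH. Efficacy scored 7 days post-inoculation; 0% equals untreated control, 100% means no infection.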

The test system of the next assay is Puccinia triticina. The assay is described as follows: Puccinia triticina test (wheat)/protective. The following applies: in vivo. It is filed as in vivo. As to the method: Solvent: 49 parts by weight of […]
as §2
(§3) To produce a suitable preparation of active compound, 1 part by weight of active compound is mixed with the stated amounts of solvent and emulsifier, and the concentrate is diluted with water to the desired concentration.
(§4) To test for protective activity, young plants are sprayed with the active compound preparation at the stated application rate.
After the spray coating has dried on, the plants are sprayed with spores of a spore suspension of Puccinia triticina. The plants remain in an incubation cabin at 20° C. and 100% relative atmospheric humidity for 48 hours.
The plants are placed in greenhouse at a temperature of about 20° C. and a relative atmospheric humidity of about 80%.
Evaluation is carried out 8 days after the inoculation. 0% means an efficacy which corresponds to that of the control, whereas an efficacy of 100% means that no infection is observed.

Assay [1] deals with Fusarium graminearum. The assay is described as follows: microbe, parasite or virus in culture. The following applies: 50 μM. It is filed as cell-based.
The test system of a further assay is Alternaria solani. The assay is described as follows: Alternaria test (tomato)/protective. The class given is in vivo. The following applies: in vivo. The procedure, abridged:
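Young tomato plants were sprayed with compound (DMF/emulsifier formulation diluted in water) and inoculated with A. solani spores 1 day later. Plants were kept 24 h at 100% RH and 22 °C, then at 96% RH and 20 °C. Efficacy was scored 7 days post-inoculation, where 0% equals untreated control and 100% means no infection.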

Assay [2] has as its system Fusarium graminearum. The class given is in vivo. As to conditions: in vivo.
The test system of a further assay is Venturia inaequalis. The assay is described as follows: Venturia test (apple)/protective. The class given is in vivo. As to conditions: 100 ppm active compound, protective, evaluation 10 days after inoculation. As to the method:
Solvents: 24.5 parts by weight of acetone • 24.5 parts by weight of dimethylacetamide Emulsifier: 1 part by weight of alkylaryl polyglycol ether
(§5) To produce a suitable preparation of active compound, 1 part by weight of active compound is mixed with the stated amounts of solvents and emulsifier, and the concentrate is diluted with water to the desired concentration.
To test for protective activity, young plants are sprayed with the active compound preparation at the stated application rate. After the spray coating has dried on, the plants are inoculated with an aqueous conidia suspension of the apple scab pathogen Venturia inaequalis and then remain in an incubation cabin at about 20° C. and 100% relative atmospheric humidity for 1 day.
(§6) The plants are then placed in a greenhouse at about 21° C. and a relative atmospheric humidity of about 90%.
(§7) Evaluation is carried out 10 days after the inoculation. 0% means an efficacy which corresponds to that of the control, whereas an efficacy of 100% means that no infection is observed.

A further assay deals with Pyrenophora teres. In words: Pyrenophora teres test (barley)/protective. The class given is in vivo. The following applies: in vivo. The procedure, abridged: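 Protective test: young barley plants sprayed at the stated rate with compound in DMF/alkylaryl polyglycol ether diluted with water, inoculated with P. teres spores 1 day later, kept 48 h at 100% rel. humidity and 22° C., then greenhouse at 80% and 20° C. Efficacy scored 7-9 days post-inoculation (0% = control, 100% = no infection).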

In another assay the test system is DON/AcDON production. In words: microbe, parasite or virus in culture. It is filed as cell-based, Fusarium graminearum. The following applies: 7 days at 28° C.
Assay [3] relates to Fusarium nivale (var. majus). The assay is described as follows: Fusarium nivale (var. majus) test (wheat)/protective. The class given is in vivo. As to conditions: 1000 ppm active compound, protective, evaluation 5 days after inoculation. Here is the method:
as §1, §2, §3, §4
After the spray coating has dried on, the plants are sprayed with spores of a spore suspension of Fusarium nivale (var. majus).
The plants are placed in a greenhouse chamber under a translucent incubation hood at 10° C. and 100% relative atmospheric humidity.
Evaluation is carried out 5 days after the inoculation. 0% means an efficacy which corresponds to that of the control, whereas an efficacy of 100% means that no infection is observed.

A further assay concerns Botrytis cinerea. In words: Botrytis test (bean)/protective. It is filed as in vivo. As to conditions: 100 ppm active compound, protective, evaluation 2 days after inoculation. Here is the method:
(§8) Solvents: 24.5 parts by weight of acetone
(§9) • 24.5 parts by weight of dimethylacetamide Emulsifier: 1 part by weight of alkylaryl polyglycol ether
as §5
To test for protective activity, young plants are sprayed with the active compound preparation at the stated application rate. After the spray coating has dried on, 2 small pieces of agar colonized by Botrytis cinerea are placed onto each leaf. The inoculated plants are placed in a dark chamber at about 20° C. and 100% relative atmospheric humidity.
2 days after the inoculation, the size of the infected areas on the leaves is evaluated. 0% means an efficacy which corresponds to that of the control, whereas an efficacy of 100% means that no infection is observed.

The test system of a further assay is Leptosphaeria nodorum. In words: Leptosphaeria nodorum test (wheat)/protective. It is filed as in vivo. As to conditions: in vivo. A digest of the protocol: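 Young wheat plants were sprayed protectively, then inoculated 1 day later with L. nodorum spores and held 48 h at 100% humidity and 22° C. They were then kept in a greenhouse at 90% humidity and 22° C. Efficacy was scored 7-9 days post-inoculation, where 0% equals control and 100% means no infection.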

The test system of the next assay is Uromyces appendiculatus. In words: Uromyces test (bean)/protective. It is filed as in vivo. As to conditions: in vivo. As to the method: as §8, §9, §5
To test for protective activity, young plants are sprayed with the active compound preparation at the stated application rate. After the spray coating has dried on, the plants are inoculated with an aqueous spore suspension of the bean rust pathogen Uromyces appendiculatus and then remain in an incubation cabin at about 20° C. and 100% relative atmospheric humidity for 1 day.
as §6, §7

Another assay relates to Phytophthora infestans. The class given is in vivo. As to conditions: in vivo.

Regarding `CC(C)(O)C(=O)Nc1cc(-c2c(-c3ccccc3)nn3c2CCCC3)ccn1` [Example 50], the efficacy in % in the assay on Septoria tritici is given as 90%; in the assay on Sphaerotheca fuliginea it was 94%; in the assay with Puccinia triticina it was 86%; with Alternaria solani, 95%; with Fusarium graminearum [2] it was 83%; in the assay with Venturia inaequalis it was 88%. The efficacy in % in the assay on Pyrenophora teres was found to be 95%; in [3], 83%. For the same compound, in the assay on Fusarium graminearum [1], the “% inhibition of the fungal growth of Fusarium graminearum at 50 μM” value (from here on “% inhibition of the fungal growth … at 50 μM”) came out at 57%. Also, the “% inhibition of DON/AcDON at 50 μM” value in the assay with DON/AcDON production came to 92%.
As to `CCC(=O)Nc1cc(-c2c(-c3ccc(F)cc3)nn3c2CCC3C)ccn1` (centres unmarked) [Example 76], the efficacy in % with Septoria tritici worked out at 100%; with Botrytis cinerea it was 100%; in the assay on Sphaerotheca fuliginea it was 100%; in the assay on Puccinia triticina, 88%; in the assay with Alternaria solani it was 100%; in the assay with Fusarium graminearum [2], 90%. The efficacy in % in the assay on Venturia inaequalis stood at 100%; with Leptosphaeria nodorum, 89%; in the assay on Uromyces appendiculatus it was 95%; in assay [3] it was 100%.
Regarding `CC1CCc2c(-c3ccncc3F)c(-c3ccc(F)cc3)nn21` (centres unmarked) [Example 117], the efficacy in % with Septoria tritici is 100%; in the assay with Botrytis cinerea, 100%; with Sphaerotheca fuliginea, 95%; with Puccinia triticina, 100%; with Alternaria solani, 94%; with Fusarium graminearum [2], 100%. The efficacy in % is reported as 100% in the assay on Venturia inaequalis; 100% in the assay with Pyrenophora teres; 86% with Leptosphaeria nodorum; 90% with Uromyces appendiculatus; 100% in assay [3].
Take `CC(C)(O)C(=O)Nc1cc(-c2c(-c3ccc(F)cc3)nn3c2CCCC3)ccn1` [Example 55]: the efficacy in % came to 90% in the assay on Septoria tritici; 95% in the assay on Sphaerotheca fuliginea; 100% in the assay with Puccinia triticina; 80% in the assay on Alternaria solani; 83% with Fusarium graminearum [2]; 95% in the assay on Pyrenophora teres. Also, the efficacy in % stood at 90% with Leptosphaeria nodorum and 100% in assay [3].
Regarding `CC(C)C(=O)Nc1cc(-c2c(-c3ccc(F)cc3)nn3c2CCC3C)ccn1` (centres unmarked) [Example 77], the efficacy in % in the assay with Septoria tritici is recorded as 100%; with Botrytis cinerea, 100%; in the assay on Puccinia triticina, 88%; in the assay with Alternaria solani it was 89%; in the assay on Fusarium graminearum [2] it was 90%; in the assay with Venturia inaequalis, 100%. Moreover, the efficacy in % in the assay with Leptosphaeria nodorum is reported as 94%; with Uromyces appendiculatus, 98%; in assay [3], 100%.
As to `CCC(=O)Nc1cc(-c2c(-c3ccc(F)cc3)nn3c2CCC3)ccn1` [Example 40], the efficacy in % with Septoria tritici amounted to 90%; with Botrytis cinerea it was 100%; with Sphaerotheca fuliginea, 94%; with Puccinia triticina, 100%; in the assay on Alternaria solani it was 100%; in the assay with Fusarium graminearum [2], 100%. Moreover, the efficacy in % with Venturia inaequalis was 94%; in the assay with Pyrenophora teres it was 95%; in the assay with Leptosphaeria nodorum, 95%; in the assay on Phytophthora infestans, 70%; with Uromyces appendiculatus, 81% and 75%; in [3] it was 100%.
Regarding `CC(=O)Nc1cc(-c2c(-c3ccsc3)nn3c2CCCC3)ccn1` [Example 58], the efficacy in % in the assay with Septoria tritici is 89%; in the assay on Botrytis cinerea it was 100%; in the assay with Sphaerotheca fuliginea, 96%; in the assay on Puccinia triticina it was 100%; with Alternaria solani it was 80%; with Fusarium graminearum [2] it was 100%. Also, the efficacy in % in the assay on Venturia inaequalis is given as 99%; in the assay with Pyrenophora teres, 90%; in the assay on Leptosphaeria nodorum, 94%; in the assay with Phytophthora infestans, 70%; in assay [3] it was 100%. In addition, the “% inhibition of the fungal growth … at 50 μM” value in the assay on Fusarium graminearum [1] was 100%. Besides, in the assay on DON/AcDON production, the “% inhibition of DON/AcDON at 50 μM” value was determined as 100%.
Regarding `O=CNc1cc(-c2c(-c3ccc(F)cc3)nn3c2CCCC3)ccn1` [Example 36], the efficacy in % was 100% in the assay on Septoria tritici; 94% in the assay on Sphaerotheca fuliginea; 78% in the assay on Puccinia triticina; 93% with Fusarium graminearum [2]; 89% in the assay on Pyrenophora teres; 90% in the assay with Leptosphaeria nodorum. Moreover, the efficacy in % with Phytophthora infestans was found to be 80%; in the assay on Uromyces appendiculatus, 85%; in [3] it was 88%. Moreover, in the assay with Fusarium graminearum [1], the “% inhibition of the fungal growth … at 50 μM” value stood at 94%. Besides, the “% inhibition of DON/AcDON at 50 μM” value in the assay with DON/AcDON production came out at 99%.
For the compound `O=C(Nc1cc(-c2c(-c3ccc(F)cc3)nn3c2CCCC3)ccn1)c1ccccc1` [Example 32], the efficacy in % in the assay with Septoria tritici came out at 100%; in the assay on Botrytis cinerea, 98%; in the assay on Puccinia triticina it was 89%; with Alternaria solani, 78%; with Fusarium graminearum [2] it was 86%; in the assay with Venturia inaequalis, 90%. Besides, the efficacy in % in the assay on Pyrenophora teres stood at 78%; with Leptosphaeria nodorum, 90%; in the assay with Phytophthora infestans, 70%; with Uromyces appendiculatus, 96%; in [3], 86%. In addition, the “% inhibition of the fungal growth … at 50 μM” value in the assay on Fusarium graminearum [1] was 94%. In addition, the “% inhibition of DON/AcDON at 50 μM” value in the assay on DON/AcDON production turned out to be 99%.
`C[C@H](O)C(=O)Nc1cc(-c2c(-c3ccccc3)nn3c2CCCC3)ccn1` [Example 25]: the efficacy in % in the assay with Septoria tritici worked out at 86%; with Botrytis cinerea, 90%; in the assay with Sphaerotheca fuliginea, 94%; in the assay on Puccinia triticina it was 88%; in the assay with Alternaria solani it was 100%; in the assay with Venturia inaequalis, 94%. Besides, the efficacy in % is reported as 100% in the assay with Pyrenophora teres; 95% in the assay on Leptosphaeria nodorum; 80% in the assay on Phytophthora infestans; 94% in the assay on Uromyces appendiculatus; 100% in assay [3]. Also, the “% inhibition of the fungal growth … at 50 μM” value in the assay with Fusarium graminearum [1] amounted to 92%. In addition, the “% inhibition of DON/AcDON at 50 μM” value with DON/AcDON production stood at 99%.
